# Measured values as given in ChEMBL document CHEMBL2029275, “Structure-activity relationship of a series of non peptidic RGD integrin antagonists targeting α5β1: part 2” (Bioorg Med Chem Lett, 2012).
# What was measured:
# [1] = target: Integrin alpha-V/beta-3 (Homo sapiens, UniProt P05106+P06756); test: Antagonist activity at integrin alphaVbeta3 in human A375M cells assessed as cell adhesion to fibrinogen in presence of Mg2+; format: functional, cell-based
# [2] = target: Fibronectin receptor (Integrin alpha-5/beta-1 and alpha-V/beta-3) (Homo sapiens, UniProt P05106+P05556+P06756+P08648); test: Antagonist activity at integrin alphavbeta3alpha5beta1 in human A375M cells assessed as inhibition of cell adhesion to fibronectin in presence of Mg2+; format: functional, cell-based
# [3] = target: T1, Integrin alpha-5/beta-1 (Homo sapiens, UniProt P05556+P08648); test: Antagonist activity at integrin alpha5beta1 in human A375M cells assessed as inhibition of cell adhesion in presence of Mg2+ and MK-0429; format: functional, cell-based
# T1 sequence (P05556 21-798 limits assumed): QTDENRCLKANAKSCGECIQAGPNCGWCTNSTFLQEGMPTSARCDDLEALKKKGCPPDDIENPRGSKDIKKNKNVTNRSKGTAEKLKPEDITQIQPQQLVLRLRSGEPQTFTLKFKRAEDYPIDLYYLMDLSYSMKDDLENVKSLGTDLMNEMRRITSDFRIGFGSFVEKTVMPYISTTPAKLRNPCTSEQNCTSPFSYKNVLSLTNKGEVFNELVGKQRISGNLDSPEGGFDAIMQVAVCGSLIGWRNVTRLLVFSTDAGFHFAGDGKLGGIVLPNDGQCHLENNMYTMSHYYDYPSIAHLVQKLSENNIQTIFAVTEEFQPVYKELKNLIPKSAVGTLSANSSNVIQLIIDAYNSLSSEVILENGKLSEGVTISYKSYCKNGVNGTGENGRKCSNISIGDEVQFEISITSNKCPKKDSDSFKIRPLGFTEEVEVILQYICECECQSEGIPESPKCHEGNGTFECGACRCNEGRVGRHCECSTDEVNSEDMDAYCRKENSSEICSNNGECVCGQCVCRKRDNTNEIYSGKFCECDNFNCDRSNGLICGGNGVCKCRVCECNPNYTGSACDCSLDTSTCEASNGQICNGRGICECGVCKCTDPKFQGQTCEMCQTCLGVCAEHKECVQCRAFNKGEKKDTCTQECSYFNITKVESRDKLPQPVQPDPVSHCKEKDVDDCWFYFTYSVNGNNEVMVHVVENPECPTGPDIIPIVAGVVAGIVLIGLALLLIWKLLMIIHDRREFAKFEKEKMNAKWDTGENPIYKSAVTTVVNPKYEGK
# T1 sequence (P08648 42-894 limits assumed): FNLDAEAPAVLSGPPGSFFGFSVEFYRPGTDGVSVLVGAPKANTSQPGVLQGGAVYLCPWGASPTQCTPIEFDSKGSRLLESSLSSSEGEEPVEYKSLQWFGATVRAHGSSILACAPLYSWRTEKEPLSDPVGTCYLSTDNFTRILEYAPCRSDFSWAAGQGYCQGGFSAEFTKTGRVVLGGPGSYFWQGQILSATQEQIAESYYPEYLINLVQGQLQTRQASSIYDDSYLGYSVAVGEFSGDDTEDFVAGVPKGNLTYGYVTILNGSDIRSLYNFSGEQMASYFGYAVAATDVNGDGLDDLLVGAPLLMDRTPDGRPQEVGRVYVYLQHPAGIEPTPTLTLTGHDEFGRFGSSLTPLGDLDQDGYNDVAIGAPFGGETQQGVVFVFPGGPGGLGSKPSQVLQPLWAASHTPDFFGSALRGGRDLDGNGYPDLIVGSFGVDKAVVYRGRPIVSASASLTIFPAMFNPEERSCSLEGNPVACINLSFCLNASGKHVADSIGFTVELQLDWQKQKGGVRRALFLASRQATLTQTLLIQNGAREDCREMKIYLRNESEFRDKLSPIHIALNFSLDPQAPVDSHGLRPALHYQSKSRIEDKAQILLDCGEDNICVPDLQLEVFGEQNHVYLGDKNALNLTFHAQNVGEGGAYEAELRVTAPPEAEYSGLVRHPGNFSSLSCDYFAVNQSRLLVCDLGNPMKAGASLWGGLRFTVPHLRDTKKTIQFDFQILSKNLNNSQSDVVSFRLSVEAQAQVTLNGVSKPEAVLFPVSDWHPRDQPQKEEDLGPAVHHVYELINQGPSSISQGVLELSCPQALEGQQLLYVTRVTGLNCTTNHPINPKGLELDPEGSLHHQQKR
# T1 sequence (P08648 895-1049 limits assumed): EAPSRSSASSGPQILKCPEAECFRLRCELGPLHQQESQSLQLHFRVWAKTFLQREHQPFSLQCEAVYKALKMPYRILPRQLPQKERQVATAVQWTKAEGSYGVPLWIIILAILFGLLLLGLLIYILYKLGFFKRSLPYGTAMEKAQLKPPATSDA
# [4] = system: A375M; test: Selectivity ratio of IC50 for integrin alphavbeta3alpha5beta1-mediated human A375M cells adhesion to fibronectin in absence of MK-0429 to IC50 for integrin alpha5beta1-mediated human A375M cells adhesion to fibronectin in presence of MK-0429; format: cell-based
# [5] = target: T1, Integrin alpha-5/beta-1; test: Binding affinity to integrin alpha5beta1; format: protein-complex assay
# [6] = target: T1, Integrin alpha-5/beta-1; test: Antagonist activity at integrin alpha5beta1 in human K562 cells assessed as inhibition of cell adhesion; format: functional, cell-based
# [7] = target: T1, Integrin alpha-5/beta-1; test: Antagonist activity at integrin alpha5beta1 in human K562 cells assessed as inhibition of cell adhesion in presence of human serum albumin; format: functional, cell-based
# [8] = species: Rattus norvegicus; test: Free drug level in rat; format: ADME, organism-based; conditions: in vivo
# [9] = species: Homo sapiens; test: Free drug level in human; format: ADME, organism-based; conditions: in vivo
# Chain of Integrin alpha-V/beta-3 (P05106 27-788 limits assumed): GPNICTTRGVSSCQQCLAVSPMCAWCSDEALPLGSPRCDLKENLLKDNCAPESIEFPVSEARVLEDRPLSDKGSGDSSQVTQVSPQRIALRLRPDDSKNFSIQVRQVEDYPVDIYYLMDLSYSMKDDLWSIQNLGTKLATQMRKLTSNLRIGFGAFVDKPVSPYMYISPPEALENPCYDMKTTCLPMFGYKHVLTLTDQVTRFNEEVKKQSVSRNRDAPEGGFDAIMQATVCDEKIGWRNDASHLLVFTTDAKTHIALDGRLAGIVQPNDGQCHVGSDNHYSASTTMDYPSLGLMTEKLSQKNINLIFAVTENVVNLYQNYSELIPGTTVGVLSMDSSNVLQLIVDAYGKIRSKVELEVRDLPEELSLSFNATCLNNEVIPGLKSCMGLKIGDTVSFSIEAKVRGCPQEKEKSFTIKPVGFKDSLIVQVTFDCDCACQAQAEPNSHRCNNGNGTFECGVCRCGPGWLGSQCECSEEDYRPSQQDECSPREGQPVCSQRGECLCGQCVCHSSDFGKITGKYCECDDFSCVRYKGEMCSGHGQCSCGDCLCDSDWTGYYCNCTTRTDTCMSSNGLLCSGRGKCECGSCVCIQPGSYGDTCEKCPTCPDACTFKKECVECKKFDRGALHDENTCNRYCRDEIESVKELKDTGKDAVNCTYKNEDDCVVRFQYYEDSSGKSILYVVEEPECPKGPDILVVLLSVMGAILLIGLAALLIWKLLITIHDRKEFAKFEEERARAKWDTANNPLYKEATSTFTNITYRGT
# Chain of Integrin alpha-V/beta-3 (P06756 31-889 limits assumed): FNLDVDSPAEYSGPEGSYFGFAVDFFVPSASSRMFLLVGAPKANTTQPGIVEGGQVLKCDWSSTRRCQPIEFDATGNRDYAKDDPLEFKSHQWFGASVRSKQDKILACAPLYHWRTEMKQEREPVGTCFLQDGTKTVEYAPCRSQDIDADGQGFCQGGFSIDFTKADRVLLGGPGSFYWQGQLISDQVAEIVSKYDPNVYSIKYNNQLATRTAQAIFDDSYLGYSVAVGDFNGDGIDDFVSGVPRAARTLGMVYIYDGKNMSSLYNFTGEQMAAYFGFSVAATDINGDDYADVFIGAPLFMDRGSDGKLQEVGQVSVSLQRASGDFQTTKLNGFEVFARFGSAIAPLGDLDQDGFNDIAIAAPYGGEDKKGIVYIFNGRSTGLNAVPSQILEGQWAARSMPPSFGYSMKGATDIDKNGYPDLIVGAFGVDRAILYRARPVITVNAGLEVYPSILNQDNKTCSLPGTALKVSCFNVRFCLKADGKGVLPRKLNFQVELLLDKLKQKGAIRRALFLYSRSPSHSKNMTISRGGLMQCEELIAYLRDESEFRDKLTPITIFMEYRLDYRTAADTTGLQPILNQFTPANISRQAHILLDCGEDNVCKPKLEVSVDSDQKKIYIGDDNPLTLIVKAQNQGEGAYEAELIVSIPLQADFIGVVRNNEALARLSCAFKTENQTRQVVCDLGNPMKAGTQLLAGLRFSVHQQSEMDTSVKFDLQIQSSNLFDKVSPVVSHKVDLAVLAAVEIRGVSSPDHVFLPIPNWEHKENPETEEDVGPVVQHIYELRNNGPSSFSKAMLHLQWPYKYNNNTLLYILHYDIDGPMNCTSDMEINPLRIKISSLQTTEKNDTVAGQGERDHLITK
# Chain of Integrin alpha-V/beta-3 (P06756 891-1048 limits assumed): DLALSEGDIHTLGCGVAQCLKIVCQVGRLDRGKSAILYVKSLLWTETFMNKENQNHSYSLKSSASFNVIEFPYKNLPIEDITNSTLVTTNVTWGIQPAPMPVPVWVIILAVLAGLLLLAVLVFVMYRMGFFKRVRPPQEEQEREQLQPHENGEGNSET
SMILES,IC50 [1],IC50 [2],IC50 [3],Ratio IC50 [4],IC50 [5],IC50 [6],IC50 [7],Drug uptake(free) [8],Drug uptake(free) [9]
CNc1cccc(CCCc2ccc(C[C@H](NC(=O)c3c(Cl)cccc3Cl)C(=O)O)s2)n1,790 nM,800 nM,180 nM,4.4,,,,,
CNc1cccc(CCOc2c(C)cc(C[C@H](NC(=O)c3c(Cl)cccc3Cl)C(=O)O)cc2C)n1,8800 nM,8800 nM,5800 nM,1.5,21 nM,610 nM,,,
O=C(N[C@@H](Cc1ccc(OCCCNc2ccccn2)cc1)C(=O)O)c1c(Cl)cccc1Cl,2600 nM,2500 nM,610 nM,4.2,11 nM,120 nM,,,
CNc1cccc(CCCc2ccc(C[C@H](NC(=O)c3c(Cl)cccc3Cl)C(=O)O)cn2)n1,,,,,5 nM,76 nM,,,
CNc1cccc(CCOc2ccc(C[C@H](NC(=O)c3c(C)cc(C)cc3C)C(=O)O)cc2)n1,370 nM,380 nM,57 nM,6.7,1 nM,22 nM,1500 nM,0.5%,
CCc1cc(F)ccc1C(=O)N[C@@H](Cc1ccc(OCCc2cccc(NC)n2)cc1)C(=O)O,340 nM,340 nM,200 nM,1.7,4 nM,24 nM,5000 nM,0.4%,
O=C(N[C@@H](Cc1cccc(OCCNc2ccccn2)c1)C(=O)O)c1c(Cl)cccc1Cl,,,,,5900 nM,> 290000 nM,,,
O=C(N[C@@H](Cc1ccc2oc(CCNc3ccccn3)cc2c1)C(=O)O)c1c(Cl)cccc1Cl,,,,,890 nM,4000 nM,,,
CNc1cccc(CCCc2ccc(C[C@H](NC(=O)c3c(Cl)cccc3Cl)C(=O)O)cc2)n1,,,,,8 nM,46 nM,,,
CNc1cccc(CCOc2ccc(C[C@H](NC(=O)c3c(Cl)cccc3Cl)C(=O)O)cc2F)n1,290 nM,330 nM,76 nM,4.3,2 nM,47 nM,,,
O=C(N[C@@H](Cc1cccc(OCCCNc2ccccn2)c1)C(=O)O)c1c(Cl)cccc1Cl,,,,,,20000 nM,,,
CNc1cccc(CCOc2ccc(C[C@H](NC(=O)c3c(Cl)cccc3Cl)C(=O)O)cc2C)n1,600 nM,640 nM,180 nM,3.6,3 nM,81 nM,,,
CNc1cccc(CCOc2ccc(C[C@H](NC(=O)c3ccc(F)cc3C3CC3)C(=O)O)cc2)n1,520 nM,510 nM,250 nM,2,3 nM,39 nM,7700 nM,0.4%,
CNc1cccc(CCOc2ccc(C[C@H](NC(=O)c3ccc(F)cc3Cl)C(=O)O)cc2)n1,440 nM,440 nM,210 nM,2.1,2 nM,33 nM,11000 nM,0.3%,0.2%
CNc1cccc(CCOc2ccc(C[C@H](NC(=O)c3c(F)cccc3Cl)C(=O)O)cc2)n1,280 nM,280 nM,160 nM,1.7,< 1 nM,19 nM,1500 nM,0.5%,0.6%
CNc1cccc(CCOc2ccc(C[C@H](NC(=O)c3c(Cl)cccc3Cl)C(=O)O)nc2)n1,620 nM,510 nM,84 nM,6.1,1 nM,26 nM,,,
COc1ccc([C@H](CC(=O)O)N2CCN(CCCc3ccc4c(n3)NCCC4)C2=O)cn1,0.3 nM,810 nM,2200 nM,0.4,,4600 nM,,,

SMILES,IC50 [1],IC50 [2],IC50 [3],Ratio IC50 [4],IC50 [5],IC50 [6],IC50 [7],Drug uptake(free) [8],Drug uptake(free) [9]
CNc1cccc(CCOc2ccc(C[C@H](NC(=O)c3ccc(F)cc3C)C(=O)O)cc2)n1,510 nM,510 nM,470 nM,1.1,9 nM,36 nM,24000 nM,0.5%,
CNc1cccc(CCOc2ccc(C[C@H](NC(=O)c3c(C)cccc3C)C(=O)O)cc2)n1,400 nM,400 nM,90 nM,4.5,1 nM,< 23 nM,420 nM,2.2%,
CNc1cccc(CCOc2ccc(C[C@H](NC(=O)c3c(Cl)cncc3Cl)C(=O)O)cc2)n1,130 nM,130 nM,52 nM,2.6,< 1 nM,< 4 nM,55 nM,3.3%,2.4%
CNc1cccc(CCCc2csc(C[C@H](NC(=O)c3c(Cl)cccc3Cl)C(=O)O)c2)n1,,,,,180 nM,400 nM,,,
CNc1cccc(CCOc2ccc(C[C@H](NC(=O)C3(C)CCCCC3)C(=O)O)cc2)n1,830 nM,830 nM,480 nM,1.8,,39 nM,7500 nM,0.9%,0.25%
CNc1cccc(CCOc2ccc(C[C@H](NC(=O)c3ccc(F)cc3OC)C(=O)O)cc2)n1,8300 nM,8300 nM,6500 nM,1.3,130 nM,820 nM,> 100000 nM,,
CNc1cccc(CCOc2ccc(C[C@H](NC(=O)c3sccc3Cl)C(=O)O)cc2)n1,2900 nM,2900 nM,2700 nM,1.1,,52 nM,36000 nM,0.2%,0.1%
CNc1cccc(CCOc2ccc(C[C@H](NC(=O)c3ccccc3)C(=O)O)cc2)n1,6700 nM,7400 nM,5400 nM,1.4,49 nM,430 nM,,,
CNc1cccc(CCOc2ccc(C[C@H](NC(=O)c3ccccc3Cl)C(=O)O)cc2)n1,520 nM,540 nM,240 nM,2.2,3 nM,42 nM,> 26000 nM,0.5%,0.4%
CNc1cccc(CCCc2ccc(C[C@H](NC(=O)c3c(Cl)cccc3Cl)C(=O)O)nc2)n1,,,,,9 nM,110 nM,,,
O=C(N[C@@H](Cc1cccc(OCCCCNc2ccccn2)c1)C(=O)O)c1c(Cl)cccc1Cl,,,,,1900 nM,83000 nM,,,
CNc1cccc(CCOc2ccc(C[C@H](NC(=O)c3c(Cl)cccc3Cl)C(=O)O)cn2)n1,1200 nM,1200 nM,570 nM,2.1,6 nM,110 nM,,,
CNc1cccc(CCOc2ccc(C[C@H](NC(=O)c3c(C)noc3C)C(=O)O)cc2)n1,,,,,,,,3.8%,
O=C(N[C@@H](Cc1ccc(OCCNc2ccccn2)cc1)C(=O)O)c1c(Cl)cccc1Cl,,,,,82 nM,2500 nM,,,
CNc1cccc(CCOc2ccc(C[C@H](NC(=O)C3CCCCC3C)C(=O)O)cc2)n1 (stereo partly specified),960 nM,960 nM,420 nM,2.3,,71 nM,29000 nM,0.9%,
CNc1cccc(CCOc2ccc(C[C@H](NC(=O)c3c(Cl)cccc3Cl)C(=O)O)cc2)n1,230 nM,230 nM,97 nM,2.3,< 1 nM,7 nM,170 nM,1.1%,1%
CNc1cccc(CCOc2csc(C[C@H](NC(=O)c3c(Cl)cccc3Cl)C(=O)O)c2)n1,,,,,110 nM,510 nM,,,
